From patent US20230329283A1 (priority 2021, published 2023)

Columns and labels:
salmonella [1] = format: cell-based
Clostridium perfringens [2] = format: cell-based; conditions: 16 hours at 37° C., 105 CFU/mL, minimum concentration making the hole clear
[3] = test system: four bacterial suspensions (Escherichia coli, Salmonella, Staphylococcus aureus and Clostridium perfringens); format: cell-based; conditions: pepsin 3000 U/mL, pH 2.0, 37° C., 30-180 min, FIG. 5A
Clostridium perfringens [4] = format: cell-based; conditions: concentration inhibiting growth of 99.9% bacteria, 16h culture on solid medium
[5] = test system: colon bacillus (Escherichia coli); format: cell-based
salmonella [6] = assay: Minimum bactericidal concentration (MBC); format: cell-based; conditions: concentration inhibiting growth of 99.9% bacteria, 16h culture on solid medium
[7] = test system: colon bacillus (Escherichia coli); conditions: concentration inhibiting growth of 99.9% bacteria, 16h culture on solid medium
[8] = test system: Escherichia coli, Salmonella, Staphylococcus aureus and Clostridium perfringens; format: cell-based; conditions: on Escherichia coli
[9] = test system: Four indicator bacteria (Escherichia coli, Salmonella, Staphylococcus aureus and Clostridium perfringens); format: cell-based; conditions: FIG. 4
[10] = test system: four bacterial suspensions (Escherichia coli, Salmonella, Staphylococcus aureus and Clostridium perfringens); format: cell-based; conditions: trypsin 250U/mL, pH 8.0, 37° C., 30-180 min, TrSub at MIC, FIG. 5B

Question: Which “MIC Gram-negative bacteria salmonella” value (salmonella [1]) does the source give for “TrSub (EFGAGKAQCAAAWLQCASGGTLGCGGGAVACQNYRQFQCRAA; the amino acid sequence of the recombinant antimicrobial peptide TrSub)” here?
Answer: 37.5 µg/mL

Question: What about the “MIC Gram-positive bacteria Clostridium perfringens” value (Clostridium perfringens [2]) of the same substance?
Answer: 25 µg/mL

Question: What about the “inhibition rate to various bacteria after being treated by pepsin” value ([3]; TrSub at MIC) of the same substance?
Answer: above 80%

Question: And the stability to pepsin [3]?
Answer: good stability

Question: What about the “MBC Gram-positive bacteria Clostridium perfringens” value (Clostridium perfringens [4]) of the same substance?
Answer: 25 µg/mL

Question: What about the “MIC Gram-negative bacteria colon bacillus” value [5] of the same substance?
Answer: 37.5 µg/mL

Question: And the “MBC Gram-negative bacteria salmonella” value (salmonella [6])?
Answer: 75 µg/mL

Question: What about the “MBC Gram-negative bacteria colon bacillus” value [7] of the same substance?
Answer: 37.5 µg/mL

Question: What about the “antibacterial activity of the expression product” value [8] of the same substance?
Answer: inhibitory effect

Question: What about the “change in the inhibition rate of each bacterium after heat treatment” value ([9]; boiling water for 20 min) of the same substance?
Answer: almost no change

Question: What about the “inhibition rate after heat treatment” value ([9]; boiling water, 25 min treatment) of the same substance?
Answer: about 80%

Question: What about the stability to trypsin [10] of the same substance?
Answer: poor

Question: What about the “inhibition rate of the two Gram-positive bacteria after trypsin treatment” value ([10]; Gram-positive bacteria) of the same substance?
Answer: about 80%
